In patent publication US12552825B2 (Zikani Therapeutics, Inc., priority 2019, dated 2026):
Values after ≈ are worked out from the molar mass of the structure shown.

Experiments:
Format in all cases: cell-based
[1] = tested on: S. aureus MP-12; experiment: microbe, parasite or virus in culture; details: Staphylococcus aureus, MP12, read-out: MIC S. aureus MP-12
[2] = tested on: E. coli MP-4; experiment: MIC determination by CLSI broth dilution, E. coli MP-4; details: Escherichia coli, MP4, CLSI broth dilution; strain MP-4
[3] = tested on: K. pneumoniae MP-546; experiment: MIC determination by CLSI broth dilution, K. pneumoniae MP-546; details: Klebsiella pneumoniae, MP546, CLSI broth dilution; strain MP-546
[4] = tested on: P. aeruginosa MP-3; experiment: MIC determination by CLSI broth dilution, P. aeruginosa MP-3; details: Pseudomonas aeruginosa, MP3, strain MP-3
[5] = tested on: A. baumannii MP-15; experiment: MIC determination by CLSI broth dilution, A. baumannii MP-15; details: Acinetobacter baumannii, MP15, strain MP-15, read-out: MIC A. baumanii MP-15

| Structure (SMILES) | MIC [1] [µg/mL] | MIC [2] [µg/mL] | MIC [3] [µg/mL] | MIC [4] [µg/mL] | MIC [5] [µg/mL] |
| --- | --- | --- | --- | --- | --- |
| CO[C@]1(C)C[C@@H](C)CN(C)[C@@H](CCCN(C)C)COC(=O)C(C)(C)C(=O)[C@H](C)[C@H]1O[C@@H]1O[C@H](C)C[C@H](N(C)C)[C@H]1O [Compound 6, (3S,6R,8R,9R,10R)-9-(((2S,3R,4S,6R)-4-(dimethylamino)-3-hydroxy-6-methyltetrahydro-2H-pyran-2-yl)oxy)-3-(3-(dimethylamino)propyl)-8-methoxy-4,6,8,10,12,12-hexamethyl-1-oxa-4-azacyclotridecane-11,13-dione] | > 32 | < 4 | < 4 | > 32 | > 32 |
| CNC[C@H]1COC(=O)C(C)(C)C(=O)[C@H](C)[C@@H](O[C@@H]2O[C@H](C)C[C@H](N(C)C)[C@H]2O)[C@](C)(OC)C[C@@H](C)CN1C [Compound 9, (3S,6R,8R,9R,10R)-9-(((2S,3R,4S,6R)-4-(Dimethylamino)-3-hydroxy-6-methyltetrahydro-2H-pyran-2-yl)oxy)-8-methoxy-4,6,8,10,12,12-hexamethyl-3-((methylamino)methyl)-1-oxa-4-azacyclotridecane-11,13-dione] | > 32 | 4 to 32 (≈ 7.36 to 58.9 µM) | 4 to 32 (≈ 7.36 to 58.9 µM) | > 32 | > 32 |
| CO[C@]1(C)C[C@@H](C)CN(C)[C@@H](CCCN(C)C(C)C)COC(=O)C(C)(C)C(=O)[C@H](C)[C@H]1O[C@@H]1O[C@H](C)C[C@H](N(C)C)[C@H]1O [Compound 11, (3S,6R,8R,9R,10R)-9-(((2S,3R,4S,6R)-4-(dimethylamino)-3-hydroxy-6-methyltetrahydro-2H-pyran-2-yl)oxy)-3-(3-(isopropyl(methyl)amino)propyl)-8-methoxy-4,6,8,10,12,12-hexamethyl-1-oxa-4-azacyclotridecane-11,13-dione] | 4 to 32 (≈ 6.52 to 52.1 µM) | < 4 | < 4 | > 32 | > 32 |
| CO[C@]1(C)C[C@@H](C)CN(C)[C@@H](CN(C)C(=O)CN(C)C)COC(=O)C(C)(C)C(=O)[C@H](C)[C@H]1O[C@@H]1O[C@H](C)C[C@H](N(C)C)[C@H]1O [Compound 13, 2-(dimethylamino)-N-(((3S,6R,8R,9R,10R)-9-(((2S,3R,4S,6R)-4-(dimethylamino)-3-hydroxy-6-methyltetrahydro-2H-pyran-2-yl)oxy)-8-methoxy-4,6,8,10,12,12-hexamethyl-11,13-dioxo-1-oxa-4-azacyclotridecan-3-yl)methyl)-N-methylacetamide] | > 32 | 4 to 32 (≈ 6.36 to 50.9 µM) | 4 to 32 (≈ 6.36 to 50.9 µM) | > 32 | > 32 |
| C=C[C@@H]1COC(=O)C(C)(C)C(=O)[C@H](C)[C@@H](O[C@@H]2O[C@H](C)C[C@H](N(C)C)[C@H]2O)[C@](C)(OC)C[C@@H](C)CN1C [Compound 14, (3R,6R,8R,9R,10R)-9-(((2S,3R,4S,6R)-4-(Dimethylamino)-3-hydroxy-6-methyltetrahydro-2H-pyran-2-yl)oxy)-8-methoxy-4,6,8,10,12,12-hexamethyl-3-vinyl-1-oxa-4-azacyclotridecane-11,13-dione] | > 32 | 4 to 32 (≈ 7.59 to 60.8 µM) | 4 to 32 (≈ 7.59 to 60.8 µM) | > 32 | > 32 |
| CNC[C@H]1COC(=O)C(C)(C)C(=O)[C@H](C)[C@@H](O[C@@H]2O[C@H](C)C[C@H](N(C)C)[C@H]2O)[C@](C)(OC)C[C@@H](C)CN1 [Compound 15, (3S,6R,8R,9R,10R)-9-(((2S,3R,4S,6R)-4-(Dimethylamino)-3-hydroxy-6-methyltetrahydro-2H-pyran-2-yl)oxy)-8-methoxy-6,8,10,12,12-pentamethyl-3-((methylamino)methyl)-1-oxa-4-azacyclotridecane-11,13-dione] | > 32 | 4 to 32 (≈ 7.55 to 60.4 µM) | > 32 | > 32 | > 32 |
| CO[C@]1(C)C[C@@H](C)CN(C)[C@@H](CCCNC(C)C)COC(=O)C(C)(C)C(=O)[C@H](C)[C@H]1O[C@@H]1O[C@H](C)C[C@H](N(C)C)[C@H]1O [Compound 16, (3S,6R,8R,9R,10R)-9-(((2S,3R,4S,6R)-4-(dimethylamino)-3-hydroxy-6-methyltetrahydro-2H-pyran-2-yl)oxy)-3-(3-(isopropylamino)propyl)-8-methoxy-4,6,8,10,12,12-hexamethyl-1-oxa-4-azacyclotridecane-11,13-dione] | 4 to 32 (≈ 6.67 to 53.3 µM) | < 4 | 4 to 32 (≈ 6.67 to 53.3 µM) | > 32 | > 32 |
| CO[C@]1(C)C[C@@H](C)CN[C@H](CCSC)COC(=O)[C@H](C)C(=O)[C@H](C)[C@H]1O[C@@H]1OC(C)CC(N(C)C)C1O (stereo partly drawn) [Compound 202] | > 32 | > 32 |  | > 32 | > 32 |
| CO[C@]1(C)C[C@@H](C)CN[C@H](CC[S+](C)[O-])COC(=O)[C@H](C)C(=O)[C@H](C)[C@H]1O[C@@H]1OC(C)CC(N(C)C)C1O (stereo partly drawn) [Compound 203] | > 32 | > 32 |  | > 32 | > 32 |
| CO[C@]1(C)C[C@@H](C)CN[C@H](CO)COC(=O)[C@H](C)C(=O)[C@H](C)[C@H]1O[C@@H]1OC(C)CC(N(C)C)C1O (stereo partly drawn) [Compound 204] | > 32 | > 32 |  | > 32 | > 32 |
| CO[C@]1(C)C[C@@H](C)CN[C@@H](Cc2c[nH]cn2)COC(=O)[C@H](C)C(=O)[C@H](C)[C@H]1O[C@@H]1OC(C)CC(N(C)C)C1O (stereo partly drawn) [Compound 205] | > 32 | > 32 |  | > 32 | > 32 |
| CO[C@]1(C)C[C@@H](C)CN[C@@H](C)COC(=O)[C@H](C)C(=O)[C@H](C)[C@H]1O[C@@H]1OC(C)CC(N(C)C)C1O (stereo partly drawn) [Compound 206] | > 32 | 4 to 32 (≈ 8.22 to 65.8 µM) |  | > 32 | > 32 |
| CO[C@]1(C)C[C@@H](C)CN[C@H](C)COC(=O)[C@H](C)C(=O)[C@H](C)[C@H]1O[C@@H]1OC(C)CC(N(C)C)C1O (stereo partly drawn) [Compound 207] | > 32 | > 32 |  | > 32 | > 32 |
| CO[C@]1(C)C[C@@H](C)CN[C@@H](Cc2ccccc2)COC(=O)[C@H](C)C(=O)[C@H](C)[C@H]1O[C@@H]1OC(C)CC(N(C)C)C1O (stereo partly drawn) [Compound 208] | 4 to 32 (≈ 7.11 to 56.9 µM) | > 32 |  | > 32 | > 32 |
| CO[C@]1(C)C[C@@H](C)CN[C@@H](Cc2ccc(O)cc2)COC(=O)[C@H](C)C(=O)[C@H](C)[C@H]1O[C@@H]1OC(C)CC(N(C)C)C1O (stereo partly drawn) [Compound 209] | 4 to 32 (≈ 6.91 to 55.3 µM) | > 32 |  | > 32 | > 32 |
| CC[C@H]1OC(=O)[C@H](C)C(=O)[C@H](C)[C@@H](O[C@@H]2OC(C)CC(N(C)C)C2O)[C@](C)(OC)C[C@@H](C)CN[C@H]1C (stereo partly drawn) [Compound 210] | > 32 | > 32 |  | > 32 | > 32 |
| CC[C@H]1OC(=O)[C@H](C)C(=O)[C@H](C)[C@@H](O[C@@H]2OC(C)CC(N(C)C)C2O)[C@](C)(OC)C[C@@H](C)CN(C)[C@H]1C (stereo partly drawn) [Compound 211] | > 32 | > 32 |  | > 32 | > 32 |
| CO[C@]1(C)C[C@@H](C)CNC(CO)(CO)COC(=O)[C@H](C)C(=O)[C@H](C)[C@H]1O[C@@H]1OC(C)CC(N(C)C)C1O (stereo partly drawn) [Compound 212] | > 32 | > 32 |  | > 32 | > 32 |
| C=C[C@@H]1COC(=O)[C@H](C)C(=O)[C@H](C)[C@@H](O[C@@H]2OC(C)CC(N(C)C)C2O)[C@](C)(OC)C[C@@H](C)CN1 (stereo partly drawn) [Compound 213] | > 32 | > 32 |  | > 32 | > 32 |
| CC[C@@H]1COC(=O)[C@H](C)C(=O)[C@H](C)[C@@H](OC2OC(C)CC(N(C)C)C2O)[C@](C)(OC)C[C@@H](C)CN1 (stereo partly drawn) [Compound 215] | > 32 | > 32 |  | > 32 | > 32 |
| CO[C@]1(C)C[C@@H](C)CN[C@H](CNC2COC2)COC(=O)[C@H](C)C(=O)[C@H](C)[C@H]1O[C@@H]1O[C@H](C)C[C@H](N(C)C)[C@H]1O [Compound 216] | > 32 | 4 to 32 (≈ 7.17 to 57.4 µM) |  | > 32 | > 32 |
| CO[C@]1(C)C[C@@H](C)CN[C@H](CNCc2ccc(F)cn2)COC(=O)[C@H](C)C(=O)[C@H](C)[C@H]1O[C@@H]1O[C@H](C)C[C@H](N(C)C)[C@H]1O [Compound 217] | > 32 | > 32 |  | > 32 | > 32 |
| CO[C@]1(C)C[C@@H](C)CN[C@H](Cn2cc(-c3cccc(N)n3)nn2)COC(=O)[C@H](C)C(=O)[C@H](C)[C@H]1O[C@@H]1O[C@H](C)C[C@H](N(C)C)[C@H]1O [Compound 219, (3R,6R,8R,9R,10R)-3-((4-(6-aminopyridin-2-yl)-1H-1,2,3-triazol-1-yl)methyl)-9-(((2S,3R,4S,6R)-4-(dimethylamino)-3-hydroxy-6-methyltetrahydro-2H-pyran-2-yl)oxy)-8-methoxy-6,8,10,12-tetramethyl-1-oxa-4-azacyclotridecane-11,13-dione] | > 32 | > 32 |  | > 32 | > 32 |
| CO[C@]1(C)C[C@@H](C)CN[C@H](CNCCCCCCn2ccnn2)COC(=O)[C@H](C)C(=O)[C@H](C)[C@H]1O[C@@H]1O[C@H](C)C[C@H](N(C)C)[C@H]1O [Compound 220] | > 32 | > 32 |  | > 32 | > 32 |
| CO[C@]1(C)C[C@@H](C)CN[C@H](CN)COC(=O)[C@H](C)C(=O)[C@H](C)[C@H]1O[C@@H]1OC(C)CC(N(C)C)C1O (stereo partly drawn) [Compound 221] | > 32 |  | > 32 |  |  |
